Experimental data published in patent publication US8268848B2, “Cyclopropane compound” (Eisai R&D Management Co., Ltd., priority 2010, dated 2012).
Like-named read-outs stand apart in the source and are kept apart here.

Experiments:
[1] = target: T1, OX1 (Homo sapiens, UniProt O43613); assay: Measurement of orexin receptor-binding ability ([125I]-OX-A, cell membranes, OX1); set-up: expressed in transfected cells; host or cells: CHO cells (membrane preparation)
T1 sequence (O43613 1-425): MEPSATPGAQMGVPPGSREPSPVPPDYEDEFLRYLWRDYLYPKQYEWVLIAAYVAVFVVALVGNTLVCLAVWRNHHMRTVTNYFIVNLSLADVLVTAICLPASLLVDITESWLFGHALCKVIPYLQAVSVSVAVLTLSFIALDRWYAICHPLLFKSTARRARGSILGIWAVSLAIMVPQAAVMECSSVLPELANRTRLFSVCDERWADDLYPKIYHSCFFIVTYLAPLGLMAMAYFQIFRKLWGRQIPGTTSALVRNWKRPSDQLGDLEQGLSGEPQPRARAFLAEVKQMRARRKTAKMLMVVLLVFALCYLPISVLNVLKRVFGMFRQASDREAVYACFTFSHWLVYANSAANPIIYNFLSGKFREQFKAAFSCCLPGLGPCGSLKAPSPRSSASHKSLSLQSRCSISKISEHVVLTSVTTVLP

[2] = target: T2, OX2 (Homo sapiens, UniProt O43614); assay: Measurement of orexin receptor-binding ability ([125I]-OX-A, cell membranes, OX2); set-up: expressed in transfected cells; host or cells: CHO cells (membrane preparation); details: membranes of recombinant CHO cells expressing OX2, 0.2 nM [125I]-OX-A
T2 sequence (O43614 1-444): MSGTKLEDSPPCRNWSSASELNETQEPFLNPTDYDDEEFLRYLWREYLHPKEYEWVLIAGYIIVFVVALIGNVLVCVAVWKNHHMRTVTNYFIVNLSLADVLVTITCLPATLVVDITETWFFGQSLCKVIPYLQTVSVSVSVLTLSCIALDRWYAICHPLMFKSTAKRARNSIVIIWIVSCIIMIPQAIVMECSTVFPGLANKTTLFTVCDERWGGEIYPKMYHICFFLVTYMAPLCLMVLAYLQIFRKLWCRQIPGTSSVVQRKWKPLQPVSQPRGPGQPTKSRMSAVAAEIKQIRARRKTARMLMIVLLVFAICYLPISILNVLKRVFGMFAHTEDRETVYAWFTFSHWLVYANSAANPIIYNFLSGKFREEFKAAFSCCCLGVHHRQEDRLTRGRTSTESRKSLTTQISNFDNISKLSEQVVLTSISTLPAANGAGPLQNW

[3] = membranes of recombinant CHO cells expressing OX1, 0.2 nM [125I]-OX-A, read-out: OX1 (IC50)

SMILES | IC50 [1, 3] [nM] | IC50 ([2]; read-out: OX2 (IC50)) [nM] | IC50 [1] [nM] | IC50 ([2]; OX2 (IC50) nM) [nM]
Cc1ncc(OC[C@@]2(c3ccc(F)c(F)c3)C[C@H]2C(=O)Nc2ccc(F)cc2)c(C)n1 [Example 165, (1R,2S)-2-(3,4-difluorophenyl)-2-{[(2,4-dimethylpyrimidin-5-yl)oxy]methyl}-N-(4-fluorophenyl)cyclopropanecarboxamide] | 29 | 7 |  | 
Cc1ncc(OC[C@@]2(c3ccc(F)c(F)c3)C[C@H]2C(=O)Nc2ccccn2)c(C)n1 [Example 166, (1R,2S)-2-(3,4-difluorophenyl)-2-{[(2,4-dimethylpyrimidin-5-yl)oxy]methyl}-N-(pyridin-2-yl)cyclopropanecarboxamide] |  |  | 50 | 7
Cc1ncc(OC[C@@]2(c3ccc(F)c(F)c3)C[C@H]2C(=O)Nc2ccc(C#N)cn2)c(C)n1 [Example 167, (1R,2S)-N-(5-cyanopyridin-2-yl)-2-(3,4-difluorophenyl)-2-{[(2,4-dimethylpyrimidin-5-yl)oxy]methyl}cyclopropanecarboxamide] |  |  | 38 | 10
Cc1ncc(OC[C@@]2(c3ccc(F)c(F)c3)C[C@H]2C(=O)Nc2ccc(Cl)cn2)c(C)n1 [Example 168, (1R,2S)-N-(5-chloropyridin-2-yl)-2-(3,4-difluorophenyl)-2-{[(2,4-dimethylpyrimidin-5-yl)oxy]methyl}cyclopropanecarboxamide] |  |  | 15 | 4
Cc1ncc(OC[C@@]2(c3ccc(F)c(F)c3)C[C@H]2C(=O)Nc2ccc(F)cn2)c(C)n1 [Example 169, (1R,2S)-2-(3,4-difluorophenyl)-2-{[(2,4-dimethylpyrimidin-5-yl)oxy]methyl}-N-(5-fluoropyridin-2-yl)cyclopropanecarboxamide] |  |  | 14 | 4
Cc1ncc(OC[C@@]2(c3ccc(F)c(F)c3)C[C@H]2C(=O)Nc2ccc(F)cc2F)c(C)n1 [Example 171] | 43 | 11 |  | 
COc1cc(NC(=O)[C@@H]2C[C@@]2(COc2cnc(C)nc2C)c2ccc(F)c(F)c2)ncc1F [Example 173, (1R,2S)-2-(3,4-difluorophenyl)-2-{[(2,4-dimethylpyrimidin-5-yl)oxy]methyl}-N-(5-fluoro-4-methoxypyridin-2-yl)cyclopropanecarboxamide] | 3.6 | 3.3 |  | 
Cc1ccc(C2(COc3cnc(C)nc3C)CC2C(=O)Nc2ccc(F)cn2)cc1 (centres unmarked) [Example 174] |  |  | 33 | 55
Cc1ccc(C2(COc3cnc(C)nc3C)CC2C(=O)Nc2ccc(Cl)cn2)cc1 (centres unmarked) [Example 175] |  |  | 62 | 35
Cc1cccc(C2(COc3cnc(C)nc3C)CC2C(=O)Nc2ccc(F)cn2)c1 (centres unmarked) [Example 176] |  |  | 137 | 26
Cc1cccc(C2(COc3cnc(C)nc3C)CC2C(=O)Nc2cccnc2)c1 (centres unmarked) [Example 177] | 334 | 84 |  | 
Cc1ncc(OCC2(c3ccccc3C)CC2C(=O)Nc2ccc(F)cn2)c(C)n1 (centres unmarked) [Example 179] |  |  | 167 | 29
Cc1ncc(OCC2(c3ccccc3C)CC2C(=O)Nc2cccnc2)c(C)n1 (centres unmarked) [Example 180] | 231 | 33 |  | 
COc1ccc(C2(COc3cnc(C)nc3C)CC2C(=O)Nc2ccc(F)cn2)cc1 (centres unmarked) [Example 181] |  |  | 118 | 100
COc1ccc(C2(COc3cnc(C)nc3C)CC2C(=O)Nc2ccc(Cl)cn2)cc1 (centres unmarked) [Example 182] | 99 | 21 |  | 
COc1cccc(C2(COc3cnc(C)nc3C)CC2C(=O)Nc2ccc(C#N)cn2)c1 (centres unmarked) [Example 183] |  |  | 337 | 42
COc1cccc(C2(COc3cnc(C)nc3C)CC2C(=O)Nc2cccnc2)c1 (centres unmarked) [Example 184] | 784 | 21 |  | 
COc1cccc(C2(COc3cnc(C)nc3C)CC2C(=O)Nc2ccc(Cl)cn2)c1 (centres unmarked) [Example 185] |  |  | 24 | 7
COc1cccc([C@]2(COc3cnc(C)nc3C)C[C@H]2C(=O)Nc2cc(C)c(F)cn2)c1 [Example 189, (1R,2S)-2-{[(2,4-dimethylpyrimidin-5-yl)oxy]methyl}-N-(5-fluoro-4-methylpyridin-2-yl)-2-(3-methoxyphenyl)cyclopropanecarboxamide] | 7 | 4.1 |  | 
COc1cccc([C@]2(COc3cnc(C)nc3C)C[C@H]2C(=O)Nc2ccc(F)c(F)c2)c1 [Example 190, (1R,2S)-N-(3,4-difluorophenyl)-2-{[(2,4-dimethylpyrimidin-5-yl)oxy]methyl}-2-(3-methoxyphenyl)cyclopropanecarboxamide] | 11 | 5 |  | 
COCc1nc(C)ncc1OC[C@@]1(c2cccc(F)c2)C[C@H]1C(=O)Nc1ccc(F)cc1 [Example 192, (1R,2S)-2-(3-fluorophenyl)-N-(4-fluorophenyl)-2-{[(4-methoxymethyl-2-methylpyrimidin-5-yl)oxy]methyl}cyclopropanecarboxamide] | 12 | 5 |  | 
COCc1nc(C)ncc1OC[C@@]1(c2cccc(F)c2)C[C@H]1C(=O)Nc1ccccn1 [Example 193, (1R,2S)-2-(3-fluorophenyl)-2-{[(4-methoxymethyl-2-methylpyrimidin-5-yl)oxy]methyl}-N-(pyridin-2-yl)cyclopropanecarboxamide] |  |  | 36 | 8
COCc1nc(C)ncc1OC[C@@]1(c2cccc(F)c2)C[C@H]1C(=O)Nc1ccc(F)c(F)c1 [Example 194, (1R,2S)-N-(3,4-difluorophenyl)-2-(3-fluorophenyl)-2-{[(4-methoxymethyl-2-methylpyrimidin-5-yl)oxy]methyl}cyclopropanecarboxamide] | 7 | 3 |  | 
COCc1nc(C)ncc1OC[C@@]1(c2cccc(F)c2)C[C@H]1C(=O)Nc1cccc(F)c1 [Example 195, (1R,2S)-N,2-bis(3-fluorophenyl)-2-{[(4-methoxymethyl-2-methylpyrimidin-5-yl)oxy]methyl}cyclopropanecarboxamide] | 6 | 3 |  | 
COCc1nc(C)ncc1OC[C@@]1(c2cccc(F)c2)C[C@H]1C(=O)Nc1ccc(F)cc1F [Example 196, (1R,2S)-N-(2,4-difluorophenyl)-2-(3-fluorophenyl)-2-{[(4-methoxymethyl-2-methylpyrimidin-5-yl)oxy]methyl}cyclopropanecarboxamide] | 9 | 4 |  | 
COCc1nc(C)ncc1OC[C@@]1(c2cccc(F)c2)C[C@H]1C(=O)Nc1ccc(Cl)cn1 [Example 198, (1R,2S)-N-(5-chloropyridin-2-yl)-2-(3-fluorophenyl)-2-{[(4-methoxymethyl-2-methylpyrimidin-5-yl)oxy]methyl}cyclopropanecarboxamide] |  |  | 5 | 4
COCc1nc(C)ncc1OC[C@@]1(c2cccc(F)c2)C[C@H]1C(=O)Nc1ccc(C#N)cn1 [Example 200] |  |  | 67 | 12
COCc1nc(C)ncc1OC[C@@]1(c2cccc(F)c2)C[C@H]1C(=O)Nc1ccc(C(F)(F)F)cn1 [Example 201, (1R,2S)-2-(3-fluorophenyl)-2-{[(4-methoxymethyl-2-methylpyrimidin-5-yl)oxy]methyl}-N-[5-(trifluoromethyl)pyridin-2-yl]cyclopropanecarboxamide] |  |  | 5 | 4
